# Measured values from US20070025974A1, “Amylases producing an altered immunogenic response and methods of making and using the same” (priority 2003, published 2007).
# Tested on: human CD4+ T-cells
# Assay: I-MUNE assay: T-cell proliferation (tritiated thymidine) with dendritic cells and CD4+ T-cells
# Assay type: cell-based
# Conditions: approximately 5 Lf/mL
substance,measurement,value
tetanus toxoid,positive control proliferative response,robust positive control responses
